According to PubChem BioAssay (NCI):
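GI50 marks 50% less growth. TGI denotes the concentration required for complete inhibition of growth.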

Tests used:
Test in all cases: DTP human tumour cell line panel, 384-well format
[1] = tested on: CCRF-CEM leukemia
[2] = tested on: M14 melanoma
[3] = tested on: NCI-H322M lung
[4] = tested on: HS 578T breast
[5] = tested on: MOLT-4 leukemia
[6] = tested on: 786-0 renal
[7] = tested on: ACHN renal
[8] = tested on: RXF 393 renal
[9] = tested on: SF-539 CNS
[10] = tested on: SR leukemia
[11] = tested on: NCI-H460 NSCLC
[12] = tested on: TK-10 renal
[13] = tested on: A549 NSCLC
[14] = tested on: HCT-15 colon
[15] = tested on: HT29 colon
[16] = tested on: PC-3 prostate
[17] = tested on: DU-145 prostate
[18] = tested on: UO-31 renal
[19] = tested on: HCT-116 colon
[20] = tested on: MCF7 breast
[21] = tested on: UACC-62 melanoma
[22] = tested on: KM12 colon
[23] = tested on: SNB-75 CNS
[24] = tested on: HCC-2998 colon
[25] = tested on: MDA-MB-231 breast
[26] = tested on: HOP-62 NSCLC
[27] = tested on: SK-OV-3 ovarian
[28] = tested on: U251 glioblastoma
[29] = tested on: NCI/ADR-RES ovarian
[30] = tested on: SF-295 CNS
[31] = tested on: SNB-19 CNS
[32] = tested on: OVCAR-5 ovarian
[33] = tested on: SF-268 CNS
[34] = tested on: HL-60(TB) leukemia
[35] = tested on: UACC-257 melanoma
[36] = tested on: MDA-MB-468 breast
[37] = tested on: OVCAR-4 ovarian
[38] = tested on: NCI-H226 lung
[39] = tested on: EKVX NSCLC
[40] = tested on: BT-549 breast
[41] = tested on: NCI-H522 lung
[42] = tested on: COLO 205 colon
[43] = tested on: OVCAR-3 ovarian
[44] = tested on: SW-620 colon
[45] = tested on: CAKI-1 renal
[46] = tested on: RPMI-8226 leukemia
[47] = tested on: MDA-MB-435 melanoma
[48] = tested on: T-47D breast
[49] = tested on: IGROV1 ovarian
[50] = tested on: A498 renal
[51] = tested on: LOX IMVI melanoma
[52] = tested on: NCI-H23 lung
[53] = tested on: SK-MEL-28 melanoma
[54] = tested on: HOP-92 NSCLC
[55] = tested on: MALME-3M melanoma
[56] = tested on: SN12C renal
[57] = tested on: K-562 leukemia
[58] = tested on: SK-MEL-2 melanoma
[59] = tested on: SK-MEL-5 melanoma

Cc1cc(Nc2cc(N3CCN(C)CC3)nc(C#Cc3ccccc3)n2)n[nH]1
GI50 [1]: 2.19 µM
TGI [1]: 7.01 µM
GI50 [2]: 3.13 µM
TGI [2]: 16.5 µM
GI50 [3]: 5.44 µM
TGI [3]: 19.6 µM
GI50 [4]: 2.24 µM
TGI [4]: 9.92 µM
GI50 [5]: 1.26 µM
TGI [5]: 2.58 µM
GI50 [6]: 3.75 µM
TGI [6]: 15 µM
GI50 [7]: 1.23 µM
TGI [7]: 7.68 µM
GI50 [8]: 1.07 µM
TGI [8]: 4.32 µM
GI50 [9]: 3.62 µM
TGI [9]: 15.9 µM
GI50 [10]: 1.36 µM
TGI [10]: 2.75 µM
GI50 [11]: 2.42 µM
TGI [11]: 12.1 µM
GI50 [12]: 2.48 µM
TGI [12]: 15.2 µM
GI50 [13]: 3.44 µM
TGI [13]: 12.2 µM
GI50 [14]: 2.22 µM
TGI [14]: 11.4 µM
GI50 [15]: 3.95 µM
TGI [15]: 14.8 µM
GI50 [16]: 3.09 µM
TGI [16]: 13.9 µM
GI50 [17]: 4.04 µM
TGI [17]: 17.4 µM
GI50 [18]: 2.2 µM
TGI [18]: 8.13 µM
GI50 [19]: 2.94 µM
TGI [19]: 11.9 µM
GI50 [20]: 3.07 µM
TGI [20]: 15.1 µM
GI50 [21]: 3.1 µM
TGI [21]: 14.8 µM
GI50 [22]: 0.334 µM
TGI [22]: 10.4 µM
GI50 [23]: 1.73 µM
TGI [23]: 4.35 µM
GI50 [24]: 0.348 µM
TGI [24]: 6.72 µM
GI50 [25]: 3.54 µM
TGI [25]: 15.9 µM
GI50 [26]: 3.28 µM
TGI [26]: 13.5 µM
GI50 [27]: 1.04 µM
TGI [27]: 4.36 µM
GI50 [28]: 5.41 µM
TGI [28]: 18.6 µM
GI50 [29]: 9.92 µM
TGI [29]: 22 µM
GI50 [30]: 2.95 µM
TGI [30]: 13 µM
GI50 [31]: 6.17 µM
TGI [31]: 19.3 µM
GI50 [32]: 3.53 µM
TGI [32]: 15.2 µM
GI50 [33]: 4.58 µM
TGI [33]: 16.9 µM
GI50 [34]: 2.12 µM
TGI [34]: 5.14 µM
GI50 [35]: 3.77 µM
TGI [35]: 14.3 µM
GI50 [36]: 1.51 µM
TGI [36]: 3.55 µM
GI50 [37]: 5.97 µM
TGI [37]: 20 µM
GI50 [38]: 4.3 µM
TGI [38]: 16.9 µM
GI50 [39]: 2.79 µM
TGI [39]: 12.7 µM
GI50 [40]: 2.58 µM
TGI [40]: 7.09 µM
GI50 [41]: 1.71 µM
TGI [41]: 8.3 µM
GI50 [42]: 3.73 µM
TGI [42]: 14.5 µM
GI50 [43]: 2.12 µM
TGI [43]: 13.4 µM
GI50 [44]: 3.42 µM
TGI [44]: 12.5 µM
GI50 [45]: 1.6 µM
TGI [45]: 7.03 µM
GI50 [46]: 3.24 µM
TGI [46]: 13.4 µM
GI50 [47]: 3.18 µM
TGI [47]: 12.6 µM
GI50 [48]: 9.61 µM
TGI [48]: 21.4 µM
GI50 [49]: 0.607 µM
TGI [49]: 3.28 µM
GI50 [50]: 1.66 µM
TGI [50]: 11 µM
GI50 [51]: 4.02 µM
TGI [51]: 13 µM
GI50 [52]: 2.3 µM
TGI [52]: 10.9 µM
GI50 [53]: 5.59 µM
TGI [53]: 18.8 µM
GI50 [54]: 2.23 µM
TGI [54]: 8.85 µM
GI50 [55]: 2.57 µM
TGI [55]: 11.8 µM
GI50 [56]: 2.73 µM
TGI [56]: 12.7 µM
GI50 [57]: 2.63 µM
TGI [57]: 12.3 µM
GI50 [58]: 4.14 µM
TGI [58]: 6.87 µM
GI50 [59]: 2.49 µM
TGI [59]: 12.9 µM
